Assay results as given in patent EP0908457B1, “3-(1,2-benzisothiazol- and isoxazol-5-Y1)-2,4(1H,3H)-pyrimidinedione or thione and 3-(1,2-benzisothiazol- and isoxazol-5-y1)-4(3H)-pyrimidinone or thione herbicidal agents” (BASF AKTIENGESELLSCHAFT, priority 1997, dated 1999).

What was measured:
[1] = system: Echinochloa oryzoides (Ard.) Fritsch.; assay: Preemergence weed control under flooded paddy conditions, ECHORC (Watergrass (Calif.)); format: in vivo; conditions: flooded paddy, rated three to four weeks after treatment; as to herbicidal effect rating, ECHORC: meaning of each grade not given here
[2] = system: Cyperus iria; assay: Preemergence weed control under flooded paddy conditions, CYPIR (Rice Flatsedge); format: in vivo; conditions: flooded paddy, rated three to four weeks after treatment; as to herbicidal effect rating, CYPIR: meaning of each grade not given here
[3] = system: Monochoria vaginalis, Presl.; assay: Preemergence weed control under flooded paddy conditions, MOOVA (Monochoria); format: in vivo; conditions: flooded paddy, rated three to four weeks after treatment; as to herbicidal effect rating, MOOVA: meaning of each grade not given here
[4] = system: Oryza sativa, (L.) Tebonnet; assay: Rice tolerance to post-transplant applications under flooded paddy conditions (Example 187), ORYSAT (Rice, Tebonnet); conditions: rated three to four weeks after treatment; as to herbicidal effect rating ORYSAT: meaning of each grade not given here
[5] = system: Sagittaria pygmaea, L.; assay: Preemergence weed control under flooded paddy conditions, SAGPY (Arrowhead (Pygmaea)); format: in vivo; conditions: flooded paddy, rated three to four weeks after treatment; as to herbicidal effect rating, SAGPY: meaning of each grade not given here
[6] = system: Cyperus serotinus, Rottb.; assay: Preemergence weed control under flooded paddy conditions, CYPSE (Flatsedge); format: in vivo; conditions: rated three to four weeks after treatment; as to herbicidal effect rating, CYPSE: meaning of each grade not given here
[7] = Rate 0.0320 kg/ha, preemergence
[8] = Rate 0.0620 kg/ha, preemergence
[9] = Rate 0.1250 kg/ha, preemergence
[10] = Rate 0.2500 kg/ha, preemergence
[11] = Rate 0.2500 kg/ha, preemergence weeds
[12] = Rate 0.0320 kg/ha, preemergence weeds
[13] = Rate 0.0620 kg/ha, preemergence weeds
[14] = Rate 0.1250 kg/ha, preemergence weeds

Compound: CCOP(=O)(Cc1nsc2cc(F)c(-n3c(=O)cc(C(F)(F)F)n(C)c3=O)cc12)OCC [Example 377, 1,2-Benzisothiazole-3-methanephosphonic acid, 5-[3,6-dihydro-3-methyl-2,6-dioxo-4-(trifluoromethyl)-1(2H)-pyrimidinyl]-6-fluoro-, diethyl ester]
- herbicidal effect rating, ECHORC [1, 7]: 2.0
- herbicidal effect rating, ECHORC [1, 8]: 5.0
- herbicidal effect rating, ECHORC [1, 9]: 7.0
- herbicidal effect rating, ECHORC [1, 10]: 9.0
- herbicidal effect rating, CYPIR [2, 7]: 2.0
- herbicidal effect rating, CYPIR [2, 8]: 3.0
- herbicidal effect rating, CYPIR [2, 9]: 4.5
- herbicidal effect rating, CYPIR [2, 10]: 8.0
- herbicidal effect rating, MOOVA [3, 7]: 9.0
- herbicidal effect rating, MOOVA [3, 8]: 9.0
- herbicidal effect rating, MOOVA [3, 9]: 9.0
- herbicidal effect rating, MOOVA [3, 10]: 9.0
- herbicidal effect rating ORYSAT ([4]; Rate 0.0320 kg/ha): 5.5
- herbicidal effect rating ORYSAT ([4]; Rate 0.0620 kg/ha): 6.5
- herbicidal effect rating ORYSAT ([4]; Rate 0.1250 kg/ha): 8.0
- herbicidal effect rating ORYSAT ([4]; Rate 0.2500 kg/ha): 9.0
- herbicidal effect rating, SAGPY [5, 7]: 0.0
- herbicidal effect rating, SAGPY [5, 8]: 4.0
- herbicidal effect rating, SAGPY [5, 9]: 8.5
- herbicidal effect rating, SAGPY [5, 10]: 9.0
- herbicidal effect rating, CYPSE [6, 7]: 1.0
- herbicidal effect rating, CYPSE [6, 8]: 3.0
- herbicidal effect rating, CYPSE [6, 9]: 5.0
- herbicidal effect rating, CYPSE [6, 10]: 8.5

Compound: COC(=O)CN(Cc1nsc2ccc(-n3c(=O)cc(C(F)(F)F)n(C)c3=O)cc12)S(C)(=O)=O [Example 306, Glycine, N-{{5-[3,6-dihydro-3-methyl-2,6-dioxo-4-(trifluoromethyl)-1(2H)-pyrimidinyl]-1,2-benzisothiazol-3-yl}methyl}-N-(methylsulfonyl)-, methyl ester]
- herbicidal effect rating, ECHORC [1, 11]: 0.0
- herbicidal effect rating, CYPIR [2, 11]: 0.0
- herbicidal effect rating, MOOVA [3, 11]: 0.0
- herbicidal effect rating ORYSAT ([4]; Rate 0.2500 kg/ha): 0.0
- herbicidal effect rating, SAGPY [5, 11]: 0.0
- herbicidal effect rating, CYPSE [6, 11]: 0.0

Compound: COC(=O)C(C)Oc1cc(Cl)c(C)cc1-c1nsc2ccc(-n3c(=O)cc(C(F)(F)F)n(C)c3=O)cc12 (centres unmarked) [Example 492, Propionic acid, 2-{{5-chloro-2-{5-[3,6-dihydro-3-methyl-2,6-dioxo-4-(trifluoromethyl)-1(2H)-pyrimidinyl]-1,2-benzisothiazol-3-yl}-p-tolyl}oxy}-, methyl ester]
- ECHORC herbicidal rating ([1]; 0.0320 kg/ha, preemergence): 4.0
- ECHORC herbicidal rating ([1]; 0.0620 kg/ha, preemergence): 6.0
- ECHORC herbicidal rating ([1]; 0.1250 kg/ha, preemergence): 6.0
- ECHORC herbicidal rating ([1]; 0.2500 kg/ha, preemergence): 9.0
- CYPIR herbicidal rating ([2]; 0.0320 kg/ha, preemergence): 4.0
- CYPIR herbicidal rating ([2]; 0.0620 kg/ha, preemergence): 4.0
- CYPIR herbicidal rating ([2]; 0.1250 kg/ha, preemergence): 4.0
- CYPIR herbicidal rating ([2]; 0.2500 kg/ha, preemergence): 5.0
- MOOVA herbicidal rating ([3]; 0.0320 kg/ha, preemergence): 6.0
- MOOVA herbicidal rating ([3]; 0.0620 kg/ha, preemergence): 6.0
- MOOVA herbicidal rating ([3]; 0.1250 kg/ha, preemergence): 7.0
- MOOVA herbicidal rating ([3]; 0.2500 kg/ha, preemergence): 7.0
- ORYSAT herbicidal rating (rice tolerance) ([4]; 0.0320 kg/ha): 2.0
- ORYSAT herbicidal rating (rice tolerance) ([4]; 0.0620 kg/ha): 2.0
- ORYSAT herbicidal rating (rice tolerance) ([4]; 0.1250 kg/ha): 2.0
- ORYSAT herbicidal rating (rice tolerance) ([4]; 0.2500 kg/ha): 3.0
- SAGPY herbicidal rating ([5]; 0.0320 kg/ha, preemergence): 0.0
- SAGPY herbicidal rating ([5]; 0.0620 kg/ha, preemergence): 0.0
- SAGPY herbicidal rating ([5]; 0.1250 kg/ha, preemergence): 0.0
- SAGPY herbicidal rating ([5]; 0.2500 kg/ha, preemergence): 2.0
- CYPSE herbicidal rating ([6]; 0.2500 kg/ha, preemergence): 0.0

Compound: COc1ccccc1C=C(C#N)c1nsc2ccc(-n3c(=O)cc(C(F)(F)F)n(C)c3=O)cc12 [Example 599, 1,2-Benzisothiazole-3-acetonitrile, 5-[3,6-dihydro-3-methyl-2,6-dioxo-4-(trifluoromethyl)-1(2H)-pyrimidinyl]-alpha-(o-methoxybenzylidene)-]
- herbicidal effect rating, ECHORC [1, 7]: 0.0
- herbicidal effect rating, ECHORC [1, 8]: 0.0
- herbicidal effect rating, ECHORC [1, 9]: 0.0
- herbicidal effect rating, ECHORC [1, 10]: 4.0
- herbicidal effect rating, CYPIR [2, 7]: 0.0
- herbicidal effect rating, CYPIR [2, 8]: 0.0
- herbicidal effect rating, CYPIR [2, 10]: 3.0
- herbicidal effect rating, MOOVA [3, 7]: 6.0
- herbicidal effect rating, MOOVA [3, 8]: 7.0
- herbicidal effect rating, MOOVA [3, 10]: 7.0
- herbicidal effect rating ORYSAT ([4]; Rate 0.0320 kg/ha): 2.0
- herbicidal effect rating ORYSAT ([4]; Rate 0.0620 kg/ha): 3.0
- herbicidal effect rating ORYSAT ([4]; Rate 0.1250 kg/ha): 3.0
- herbicidal effect rating ORYSAT ([4]; Rate 0.2500 kg/ha): 5.0
- herbicidal effect rating, SAGPY [5, 7]: 0.0
- herbicidal effect rating, SAGPY [5, 8]: 0.0
- herbicidal effect rating, SAGPY [5, 9]: 0.0
- herbicidal effect rating, SAGPY [5, 10]: 0.0
- herbicidal effect rating, CYPSE [6, 8]: 0.0
- herbicidal effect rating, CYPSE [6, 10]: 0.0

Compound: Cn1c(C(F)(F)F)cc(=O)n(-c2ccc3snc(C(=O)O)c3c2)c1=O [Example 315, 1,2-Benzisothiazole-3-carboxylic acid, 5-[3,6-dihydro-3-methyl-2,6-dioxo-4-(trifluoromethyl)-1(2H)-pyrimidinyl]-]
- herbicidal effect rating, ECHORC [1, 12]: 0.0
- herbicidal effect rating, ECHORC [1, 13]: 0.0
- herbicidal effect rating, ECHORC [1, 14]: 0.0
- herbicidal effect rating, ECHORC [1, 11]: 3.0
- herbicidal effect rating, CYPIR [2, 12]: 0.0
- herbicidal effect rating, CYPIR [2, 13]: 0.0
- herbicidal effect rating, CYPIR [2, 14]: 5.0
- herbicidal effect rating, CYPIR [2, 11]: 9.0
- herbicidal effect rating, MOOVA [3, 12]: 9.0
- herbicidal effect rating, MOOVA [3, 13]: 9.0
- herbicidal effect rating, MOOVA [3, 14]: 9.0
- herbicidal effect rating, MOOVA [3, 11]: 9.0
- herbicidal effect rating ORYSAT ([4]; Rate 0.0320 kg/ha): 0.0
- herbicidal effect rating ORYSAT ([4]; Rate 0.0620 kg/ha): 0.0
- herbicidal effect rating ORYSAT ([4]; Rate 0.1250 kg/ha): 0.0
- herbicidal effect rating ORYSAT ([4]; Rate 0.2500 kg/ha): 2.0
- herbicidal effect rating, SAGPY [5, 12]: 0.0
- herbicidal effect rating, SAGPY [5, 13]: 0.0
- herbicidal effect rating, SAGPY [5, 14]: 3.0
- herbicidal effect rating, SAGPY [5, 11]: 4.0
- herbicidal effect rating, CYPSE [6, 12]: 0.0
- herbicidal effect rating, CYPSE [6, 13]: 0.0
- herbicidal effect rating, CYPSE [6, 14]: 3.0
- herbicidal effect rating, CYPSE [6, 11]: 3.0
